Assay results taken from patent US4100291A, “Novel 1,4-benzodioxanes” (Roussel Uclaf, priority 1976, dated 1978).
Structures can show the parent of a compound that is named as a salt.

Experiments:
[1] = system: arterial pressure measured at the rat's tail; experiment: Antihypertensive activity in spontaneous hypertensive rats, oral (Table III); assay type: in vivo, spontaneous hypertendus male rats of the Okamoto strain
Protocol: The antihypertensive activity was determined on spontaneous hypertendus male rats of the Okamoto strain 8 weeks old and the test products were orally administered daily for 9 days. The arterial pressure was measured at the rat's tail by means of a pneumatic collar connected to an electronic transducer of pressure.

[2] = Acute toxicity in mice, intraperitoneal (Table I); conditions: mouse, in vivo, ip, suspension in carboxymethylcellulose, observed one week
From the text: The results are in Table I.

[3] = system: carotidine arterial pressure; experiment: Hypotensive activity in anesthetized rats, intravenous (Table II); assay type: in vivo, male rats of the Sprague-Dawley SPF strain; conditions: for % Variation in pressure: compared to initial carotid arterial pressure; for Duration of Activity: time for pressure to return to initial value
Protocol: The hypotensive activity was determined on male rats of the Sprague-Dawley SPF strain weighing about 300 g which had been anestesized with nembutal (50 mg/kg intraveinously). The product was administered intraveinously by the jugular vein and the carotidine arterial pressure was measured before and after the administration of the test product. Table II reports the variations expressed in percent of arterial pressure after administration of the test product as compared to the initial arterial pressure as well as the time necessary for the pressure to return to the initial value.

[4] = daily dose 50 mg/kg oral, 1st Day, 1 hr after 1st ad.
[5] = daily dose 50 mg/kg oral, 1st Day, 4 hr. after

SMILES	% Pressure variation [1, 4]	% Pressure variation [1, 5]	LD50 at 168 h [2]	% Variation in pressure ([3]; 1 mg/kg)	Duration of Activity ([3]; 1 mg/kg)	other results
OC(CN1CC=C(c2c[nH]c3ccccc23)CC1)C1COc2ccccc2O1 (stereo not drawn) [Example 4, α-(2,3-dihydro-1,4-benzodioxin-2-yl)-4-([1H]-indol-3-yl)-1,2,3,6-tetrahydro-1-pyridine-ethanol]	-10%	-18%	–	–	–	–
Cn1cc(C2CCN(CC(O)C3COc4ccccc4O3)CC2)c2ccccc21 (stereo not drawn) [Example 5, α-(2,3-dihydro-1,4-benzodioxin-2-yl)-4-(1-methyl-[1H]-indol-3-yl)-1-piperidine-ethanol]	–	–	~250 mg/kg	-10%	30 min	–
COc1ccc2c(C3CCN(CC(O)C4COc5ccccc5O4)CC3)c(C)[nH]c2c1.Cl (stereo not drawn) [Example 3, α-(2,3-dihydro-1,4-benzodioxin-2-yl)-4-(6-methoxy-2-methyl-[1H]-indol-3-yl)-1-piperidine-ethanol hydrochloride]	-26%	-27%	–	–	60 min	% Variation in pressure ([3]; 10 mg/kg): -25%; Duration of Activity ([3]; 10 mg/kg): 60 min
COc1ccc2[nH]cc(C3CCN(CC(O)C4COc5ccccc5O4)CC3)c2c1 (single isomer, unassigned) [Example 2 isomer B, isomer B of (dl) α-(2,3-dihydro-1,4-benzodioxin-2-yl)-4-(5-methoxy-[1H]-indol-3-yl)-1-piperidine-ethanol]	–	–	–	–	60 min	% Variation in pressure ([3]; 1 mg/kg, listed as 2 isomer B): -20%
COc1ccc2[nH]cc(C3CCN(CC(O)C4COc5ccccc5O4)CC3)c2c1 (single isomer, unassigned) [Example 2 isomer A, isomer A of (dl) α-(2,3-dihydro-1,4-benzodioxin-2-yl)-4-(5-methoxy-[1H]-indol-3-yl)-1-piperidine-ethanol]	–	–	~500 mg/kg	–	60 min	% Variation in pressure ([3]; 1 mg/kg, listed as 2 isomer A): -14%
OC(CN1CCC(c2c[nH]c3ccccc23)CC1)C1COc2ccccc2O1 (racemic) [Example 1, (d,l) erythro α-(2,3-dihydro-1,4-benzodioxin-2-yl)-4-([1H]-indol-3-yl)-1-piperidine-ethanol hydrochloride]	-11%	-12%	~100 mg/kg	-25%	45 min	% Pressure variation ([1]; daily dose 50 mg/kg oral for 9 days, 10th Day, 24 hr. after 1st ad. (so in the source)): -15%; % Variation in pressure ([3]; 0.1 mg/kg): -10%; Duration of Activity ([3]; 0.1 mg/kg): 30 min
